Experimental data: PubChem BioAssay (NCI)
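GI50: concentration for 50% inhibition of growth. TGI: total growth inhibition.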

Key:
Assay in all cases: DTP human tumour cell line panel, 384-well format
UACC-257 melanoma = test system: UACC-257 melanoma
RXF 393 renal = test system: RXF 393 renal
NCI/ADR-RES ovarian = test system: NCI/ADR-RES ovarian
TK-10 renal = test system: TK-10 renal
MDA-MB-468 breast = test system: MDA-MB-468 breast
MDA-MB-231 breast = test system: MDA-MB-231 breast
HCC-2998 colon = test system: HCC-2998 colon
SNB-75 CNS = test system: SNB-75 CNS
IGROV1 ovarian = test system: IGROV1 ovarian
HCT-116 colon = test system: HCT-116 colon
NCI-H322M lung = test system: NCI-H322M lung
BT-549 breast = test system: BT-549 breast
SF-295 CNS = test system: SF-295 CNS

Compound: COC(=O)c1ccc2c(C(=Nc3ccc(N(C)C(=O)CN4CCN(C)CC4)cc3)c3ccccc3)c(O)[nH]c2c1
- GI50 (UACC-257 melanoma): 1.33 µM
- TGI (UACC-257 melanoma): 2.61 µM
- GI50 (RXF 393 renal): 1.11 µM
- TGI (RXF 393 renal): 2.58 µM
- GI50 (NCI/ADR-RES ovarian): 14.6 µM
- TGI (NCI/ADR-RES ovarian): > 100 µM
- GI50 (TK-10 renal): 1.83 µM
- TGI (TK-10 renal): 3.82 µM
- GI50 (MDA-MB-468 breast): 1.67 µM
- TGI (MDA-MB-468 breast): 3.08 µM
- GI50 (MDA-MB-231 breast): 1.72 µM
- TGI (MDA-MB-231 breast): 3.13 µM
- GI50 (HCC-2998 colon): 1.58 µM
- TGI (HCC-2998 colon): 2.96 µM
- GI50 (SNB-75 CNS): 0.468 µM
- TGI (SNB-75 CNS): 1.51 µM
- GI50 (IGROV1 ovarian): 0.427 µM
- TGI (IGROV1 ovarian): 4.47 µM
- GI50 (HCT-116 colon): 1.4 µM
- TGI (HCT-116 colon): 2.72 µM
- GI50 (NCI-H322M lung): 1.41 µM
- TGI (NCI-H322M lung): 3.36 µM
- GI50 (BT-549 breast): 1.49 µM
- TGI (BT-549 breast): 2.83 µM
- GI50 (SF-295 CNS): 1.83 µM
- TGI (SF-295 CNS): 3.25 µM
